Results reported in US11866708B2, “Tailored modulation of gene regulation programs via functional enhancer RNA” (Board of Regents, The University of Texas System, priority 2019, dated 2024).

System: TNFSF10
Experiment: TNFSF10 and eRNA expression with TIC10 treatment
Type: cell-based, human
Details: TIC10 treatment 48 hours; FIG. 6F left
Experimental: For the negative control experiment, 5 uM of TIC10 (SML1068, Sigma-Aldrich) was treated for 48 hrs to activate the apoptosis pathway by inducing the level of TNFSF10 expression.

Cc1ccccc1CN1C(=O)C2=C(CCN(Cc3ccccc3)C2)N2CCN=C12 [TIC10]
TNFSF10 expression: induced TNFSF10 expression significantly | expression of the virus inducible eRNAs associated with the TNFSF10 gene: did not affect expression
